The text below walks through data of publication PMC9103351, “Effects of the Bark Resin Extract of Garcinia nigrolineata on Chronic Stress-Induced Memory Deficit in Mice Model and the In Vitro Monoamine Oxidases and β-Amyloid Aggregation Inhibitory Activities of Its Prenylated Xanthone Constituents” (Molecules, 2022).

The test system of assay [1] is UCMS mice. As to the kind of experiment: Lipid peroxidation (TBARs, MDA) in frontal cortex and hippocampus of UCMS mice. Format: in vivo, ICR mice. The note with it: 100 mg/kg/day. As for the experimental part:
(§1) Five-week-old male ICR mice (weight: 20–30 g), which were acquired from Nomura Siam International (Pathumwan, Bangkok, Thailand), were maintained at the Animal Unit of the Faculty of Pharmaceutical Sciences, Khon Kaen University. Mice were cared for in accordance with the Guiding Principles for the Care and Use of Animals (NIH Publications No. 80–23, revised in 2011). The facilities sustained a 12 h light/dark cycle, constant temperature (22 ± 2 °C), and humidity (45 ± 2%), with full access to food and drink. The current research was authorized by the Animal Ethics Committee for Use and Care of Khon Kaen University (IACUC-KKU-121/64)
(§2) Mice in the stress groups received mild stressors for 6 weeks. […]
The lipid peroxidation was measured in the homogenates of the hippocampus and frontal cortex by using TBARs assay as previously described by Khamphukdee et al.. […] The intensity of the pink-colored complex MDA-TBA condensation indicated the extent of a lipid peroxidation, and their protein contents were quantified by the Bradford assay. The absorbance of the MDA-TBA complex was measured by UV/Visible spectrophotometer (Perkin Elmer Inc., Waltham, MA, USA) at 532 nm. Levels of the MDA were calculated from the MDA standard and presented as nmol MDA/mg protein.

Assay [2] concerns UCMS mice. As to the kind of experiment: Y-maze test in UCMS mice. Format: in vivo, ICR mice. As to conditions: 100 mg/kg/day p.o., vs vehicle-treated UCMS group. As for the experimental part: as §1, §2
Y-maze test was used to evaluate spontaneous alternation related to a sudden recall, a performance that was previously described by Kraeuter et al. with some modification. […] Mice were allowed to explore the maze for 4 min, during which their number and sequence of arms visits and spontaneous alternations were recorded. […] The measure of the animal recalling a memory is the percentage alternation, which was calculated by the following equation:% Alternation = [(Number of alternations)/(Total arm entries − 2)] × 100

For vitamin E, in assay [1], the “UCMS-induced lipid peroxidation (MDA level)” value is recorded as “significant neuroprotection”. In addition, the “percentage of spontaneous alternation (Y-maze)” value in assay [2] was “significantly increased”.
